Laboratory results published in US20090298793A1, “Acylgycerophospholipids for treating symptoms concomitant with cancer” (KTB TUMORFORSCHUNGSGESELLSCHAFT MBH, priority 2005, published 2009).

Experiments:
tumor cells = settings: Nagami et al., Bioorganic & Medicinal Chemistry Letters 16: 782-785 (2006); cited from earlier work
[1] = tested on: human kidney cell carcinoma RXF 486; test: Course of weight of naked mice bearing cachexia-inducing human kidney cell carcinoma RXF 486; assay type: in vivo; settings: 33 mg/kg DPPC p.o., days 0-4, 7-11, 14, 17, 18; liposomal dispersion in saline; n=3; p <0.001
Description: Tumors from the human kidney cell carcinoma RXF 486 have a string cachexia-inducing effect.
Female athymic BALB/c nude mice (nu/nu) (Charles River, Frederick, Md.) at the age of 8 to 10 weeks were employed. […] They were allowed water and rodent food (Altromin, Lage, Germany) ad libitum.
Fragments of 3-5 mm (in diameter) of the human kidney cell carcinoma RXF 486 were subcutaneously grafted between the animals' front and rear flanks. The therapy experiments were begun when the tumors had reached a size of 30-40 mm^3.
For the therapy, synthetic PL (dipalmitoylphosphatidylcholine, DPPC; Sygena, Liestal, Switzerland) was employed. It was dispersed in 0.9% (w/v) saline in a concentration of 33 mg/ml (ultrasonic dispersion in 50 ml Falcon tube) to provide a heterogeneous liposomal dispersion. For the oral administration (p.o.), the dispersion was adjusted to 3.3 mg/ml with saline.
On experiment days 0-4, 7-11, 14, 17 and 18, the animals were treated with 33 mg each per kg of body weight of DPPC p.o. by a stomach tube (application volume: 10 ml/kg). The control animals only obtained saline. The weight of the animals was determined on days 0, 2, 4, 7, 9, 11, 14, 18, 21, 25, 26 and 29 and is shown in FIG. 1 in % of the weight on day 0.

SMILES	apoptosis and necrosis in tumor cells (tumor cells)	weight loss as compared to an untreated control group [1]
CCCCCCCCCCCCCCCC(=O)OC[C@H](COP(=O)([O-])OCC[N+](C)(C)C)OC(=O)CCCCCCCCCCCCCCC [DPPC, dipalmitoylphosphatidylcholine]	does not show such an effect	virtually stopped
CCCCCCCCCCCCCC(=O)OC[C@H](COP(=O)([O-])OCC[N+](C)(C)C)OC(=O)CCCCCCCCCCCCC [dimyristoyl-PC, reference compound]	produces apoptosis and necrosis	
